Data as given in US20250206729A1, “DUAL RAF AND TUBULIN INHIBITORS AND METHODS OF USE THEREOF” (Deciphera Pharmaceuticals, LLC, priority 2023, published 2025).
Like-named read-outs stand apart in the source and are kept apart here.

Tests used:
[1] = system: Pa16c cells; assay: Pa16c cell proliferation assay; assay type: cell-based; settings: 67 to 72 h incubation, resazurin; read-out: Pa16c (inhibition of cell proliferation, IC50)
[2] = biological target: T1, B-Raf kinase (SEQ ID NO: 1) (Homo sapiens, UniProt P15056); assay: Biochemical assay for B-Raf (coupled pyruvate kinase/lactate dehydrogenase)
T1 construct: GST (N); purchased Sigma
T1 sequence (P15056 416-766): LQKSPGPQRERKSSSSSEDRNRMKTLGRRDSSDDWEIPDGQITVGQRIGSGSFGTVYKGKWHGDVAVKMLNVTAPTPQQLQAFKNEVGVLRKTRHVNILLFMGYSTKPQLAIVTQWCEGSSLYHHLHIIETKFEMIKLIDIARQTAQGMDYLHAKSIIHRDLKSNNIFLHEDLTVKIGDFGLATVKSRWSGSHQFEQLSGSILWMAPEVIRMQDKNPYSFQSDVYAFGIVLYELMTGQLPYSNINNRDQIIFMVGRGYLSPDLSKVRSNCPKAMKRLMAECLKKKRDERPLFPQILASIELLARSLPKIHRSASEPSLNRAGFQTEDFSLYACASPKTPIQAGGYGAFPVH

[3] = system: tubulin polymerization in HCT-116 cells; assay: Cellular tubulin polymerization assay (HCT-116 cells); assay type: cell-based; settings: HCT-116 cells, read-out: Tubulin Cellular
Description: HCT-116 cells (catalog #CCL-247) are obtained from the American Type Culture Collect (ATCC, Manassas, VA). Briefly, cells are grown in McCoy's 5A supplemented with 10% characterized fetal bovine serum (Invitrogen, Carlsbad, CA) and 1% Penicillin/Streptomycin/L-Glutamine at 37° C., 5% CO2, and 95% humidity. Cells are expanded until reaching 70-95% confluency at which point they are sub-cultured or harvested for assay use. 450000 cells are added per well in 1500 μL complete growth medium in a tissue culture treated, 12-well plate. Plates are incubated for 18 to 24 h at 37° C., 5% CO2, and 95% humidity. At the end of the incubation, 2000 μL of base culture media is added to each well, followed by a serial dilution of compound. Plates are incubated for an additional 1 h at 37° C., 5% CO2, and 95% humidity. Lysates are generated by the addition of 100 μL Lysis and Microtubule Stabilization Buffer 1 (LMSO1, Cytoskeleton Inc, Denver, CO) supplemented with GTP (BST06, Cytoskeleton Inc), ATP (BSA04, Cytoskeleton Inc), and Protease Inhibitor Cocktail Stock (PIC02, Cytoskeleton Inc). Cells are scraped off wells using a rubber cell scraper and collected in a clean 96-well plate. Lysates are centrifuged at 1000× g, 37° C. for 10 min and supernatant fraction is placed into an additional 96-well plate. The remaining pellet fraction is reconstituted in 100 μL LMS01 buffer and sonicated for 10 min. Pellet and Supernatant fractions are probed for α-tubulin via western blot analysis on the Jess System or equivalent (Bio-techne, Minneapolis, MN). Data is analyzed using Prism software (Graphpad, San Diego, CA) to calculate IC50 values.

[4] = system: HPAF-II cells; assay: HPAF-II cell proliferation assay; assay type: cell-based; settings: Homo sapiens
[5] = system: HCT-116 cells; assay: HCT-116 cell proliferation assay; assay type: cell-based; settings: Homo sapiens
[6] = system: MiaPaca-2 cells; assay: MiaPaca-2 cell proliferation assay; assay type: cell-based; settings: Homo sapiens, MIA PaCa-2
[7] = biological target: T2, C-Raf kinase (SEQ ID NO: 2) (Homo sapiens, UniProt P04049, Y340D/Y341D); assay: Biochemical assay for C-Raf (coupled pyruvate kinase/lactate dehydrogenase)
T2 construct: C-Raf residues 306-end; Y340D, Y341D with N-; GST (N); purchased Sigma
T2 sequence (P04049 307-648 Y340D/Y341D): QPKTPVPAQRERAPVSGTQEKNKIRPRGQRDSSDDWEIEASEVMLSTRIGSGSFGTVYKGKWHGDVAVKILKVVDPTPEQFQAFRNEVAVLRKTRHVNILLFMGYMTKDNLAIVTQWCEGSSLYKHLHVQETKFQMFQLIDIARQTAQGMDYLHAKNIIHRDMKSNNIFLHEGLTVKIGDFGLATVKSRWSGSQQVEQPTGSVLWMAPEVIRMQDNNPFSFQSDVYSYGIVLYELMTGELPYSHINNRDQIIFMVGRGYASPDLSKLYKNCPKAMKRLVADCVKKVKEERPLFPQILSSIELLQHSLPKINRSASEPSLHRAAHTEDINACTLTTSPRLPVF

[8] = 1 mM ATP, read-out: BRAF (inhibition of biochemical activity, IC50)
[9] = HPAF-II, 115 to 120 h incubation, resazurin, read-out: HPAF-II (inhibition of cell proliferation, IC50)
[10] = Table 3, mutant KRAS pancreatic cancer cell line, anti-proliferative, read-out: HPAF-II
[11] = HCT-116, 67 to 72 h incubation, resazurin, read-out: HCT-116 (inhibition of cell proliferation, IC50)
[12] = Table 3, mutant KRAS colorectal cancer cell line, anti-proliferative, read-out: HCT-116
[13] = 67-72 h incubation, resazurin, read-out: MiaPaca-2 (inhibition of cell proliferation, IC50)
[14] = Table 3, mutant KRAS pancreatic cancer cell line, anti-proliferative, read-out: MiaPaca-2
[15] = 1 mM ATP, read-out: CRAF (inhibition of biochemical activity, IC50)
[16] = Table 4, mutant KRAS pancreatic cancer cell line, anti-proliferative, read-out: HPAF-II
[17] = Table 4, mutant KRAS colorectal cancer cell line, anti-proliferative, read-out: HCT-116
[18] = Table 4, mutant KRAS pancreatic cancer cell line, anti-proliferative, read-out: MiaPaca-2

| Structure (SMILES) | IC50 [2, 8] [nM] | IC50 ([2]; Table 3, read-out: BRAF) [nM] | IC50 ([3]; Table 3) [nM] | IC50 [5, 11] [nM] | IC50 [5, 12] [nM] | IC50 [6, 13] [nM] | IC50 [6, 14] [nM] | IC50 [7, 15] [nM] | IC50 ([7]; Table 3, read-out: CRAF) [nM] | IC50 ([2]; Table 4, read-out: BRAF) [nM] | IC50 ([3]; Table 4) [nM] | IC50 [5, 17] [nM] | IC50 [6, 18] [nM] | IC50 ([7]; Table 4, read-out: CRAF) [nM] | IC50 [1] [nM] | IC50 [4, 9] [nM] | IC50 [4, 10] [nM] | IC50 [4, 16] [nM] |
| --- | --- | --- | --- | --- | --- | --- | --- | --- | --- | --- | --- | --- | --- | --- | --- | --- | --- | --- |
| Cc1ccc(NC(=O)c2cc(C3CCC3)cnn2)cc1-c1cc(N[C@H](C)CO)nc(N2CCOCC2)c1 [Example 48] | < 100 | < 100 | < 100 | < 100 | < 100 | < 100 | < 100 | < 100 | < 100 | – | – | – | – | – | < 100 | 500 to 1000 | 500 to 1000 | – |
| Cc1ccc(NC(=O)c2ccnc(C(F)(F)F)c2)cc1-c1cc(OCCO)nc(N2CCOCC2)c1 [Naporafenib, reference compound] | – | – | – | – | – | – | – | – | – | < 100 | 1000 to 10000 | 1000 to 10000 | 1000 to 10000 | < 100 | – | – | – | 1000 to 10000 |
| Cc1ccc2c(Nc3cccc(Cl)c3F)nccc2c1NC(=O)c1csc2c(N)ncnc12 [Belvarafenib, reference compound] | – | – | – | – | – | – | – | – | – | < 100 | 1000 to 10000 | 500 to 1000 | 1000 to 10000 | < 100 | – | – | – | 1000 to 10000 |
| Cc1ccc(NC(=O)N2CC[C@@H](CC(F)(F)F)C2)cc1-c1cc(N[C@H](C)CO)nc(N2CCOCC2)c1 [Exarafenib, reference compound] | – | – | – | – | – | – | – | – | – | – | 1000 to 10000 | 500 to 1000 | 1000 to 10000 | – | – | – | – | 1000 to 10000 |
| Cc1ccc(NC(=O)c2cncc(C(F)(F)F)c2)cc1-c1cc(OCCO)nc(N2CCOCC2)c1 [Example 47] | < 100 | – | – | 100 to 500 | – | 500 to 1000 | – | < 100 | – | – | – | – | – | – | 1000 to 10000 | 500 to 1000 | – | – |
| Cc1ccc(NC(=O)c2cc(C3CC3)cnn2)cc1-c1cc(N[C@H](C)CO)nc(N2CCOCC2)n1 [Example 36] | 100 to 500 | – | – | 100 to 500 | – | 100 to 500 | – | 100 to 500 | – | – | – | – | – | – | 500 to 1000 | 100 to 500 | – | – |
| Cc1ccc(NC(=O)c2cc(C3CC3)cnn2)cc1-c1nccc(N2CCOCC2)n1 [Example 52] | 1000 to 10000 | – | – | 1000 to 10000 | – | 1000 to 10000 | – | 1000 to 10000 | – | – | – | – | – | – | 1000 to 10000 | 1000 to 10000 | – | – |
| Cc1ccc(NC(=O)c2cc(C3CC3)cnn2)cc1-c1ccnc(N2CCOCC2)n1 [Example 31] | 1000 to 10000 | – | – | 100 to 500 | – | 100 to 500 | – | 500 to 1000 | – | – | – | – | – | – | < 100 | 100 to 500 | – | – |
| Cc1ccc(NC(=O)c2cc(C3CC3)cnn2)cc1-c1cc(N2CCOCC2)nc(N[C@H](C)CO)n1 [Example 35] | < 100 | – | – | 100 to 500 | – | 100 to 500 | – | < 100 | – | – | – | – | – | – | 100 to 500 | 100 to 500 | – | – |

Now from value to molecule, other results behind:

| IC50 [2, 8] [nM] | IC50 ([2]; Table 3, read-out: BRAF) [nM] | IC50 ([3]; Table 3) [nM] | IC50 [5, 11] [nM] | IC50 [5, 12] [nM] | IC50 [6, 13] [nM] | IC50 [6, 14] [nM] | IC50 [7, 15] [nM] | IC50 ([7]; Table 3, read-out: CRAF) [nM] | IC50 ([2]; Table 4, read-out: BRAF) [nM] | IC50 ([3]; Table 4) [nM] | IC50 [5, 17] [nM] | IC50 [6, 18] [nM] | IC50 ([7]; Table 4, read-out: CRAF) [nM] | Structure (SMILES) | IC50 [1] [nM] | IC50 [4, 9] [nM] | IC50 [4, 10] [nM] | IC50 [4, 16] [nM] |
| --- | --- | --- | --- | --- | --- | --- | --- | --- | --- | --- | --- | --- | --- | --- | --- | --- | --- | --- |
| < 100 | < 100 | < 100 | < 100 | < 100 | < 100 | < 100 | < 100 | < 100 | – | – | – | – | – | Cc1ccc(NC(=O)c2cc(C(F)(F)F)cnn2)cc1-c1ccnc(N2CC3CCC(C2)O3)c1 [Example 83] | < 100 | < 100 | < 100 | – |
| 100 to 500 | 100 to 500 | 100 to 500 | 100 to 500 | 100 to 500 | < 100 | < 100 | < 100 | < 100 | – | – | – | – | – | Cc1ccc(NC(=O)c2cc(C(F)(F)F)cnn2)cc1-c1cncc(N2CCOCC2)c1 [Example 27] | 100 to 500 | 100 to 500 | 100 to 500 | – |
| < 100 | < 100 | < 100 | < 100 | < 100 | < 100 | < 100 | < 100 | < 100 | – | – | – | – | – | Cc1ccc(NC(=O)c2cc(C(F)(F)F)cnn2)cc1-c1cc(N[C@H](C)CO)nc(N2CCOCC2)c1 [Example 19] | < 100 | < 100 | < 100 | – |
| 500 to 1000 | – | – | 100 to 500 | – | 100 to 500 | – | 500 to 1000 | – | – | – | – | – | – | Cc1ccc(NC(=O)c2cc(C(F)(F)F)cnn2)cc1-c1cc(N2CCOCC2)ncn1 [Example 25] | 1000 to 10000 | 100 to 500 | – | – |
